ChEMBL document CHEMBL1136133, “Discovery of the first series of inhibitors of human papillomavirus type 11: inhibition of the assembly of the E1-E2-Origin DNA complex” (Bioorg Med Chem Lett, 2003)

test system: human papillomavirus 11; experiment: Inhibition of the assembly of the (HPV11) Human Papillomavirus Type 11 E1E2 Origin DNA Complex; assay type: functional, organism-based

Structure (SMILES) | IC50
O=C(Nc1ccc2c(c1)OCO2)[C@H]1[C@@H](c2cccc(Cl)c2)OC2(C(=O)c3ccccc3C2=O)[C@H]1C(=O)O | 2.6 µM
O=C(Nc1ccc2c(c1)OCO2)[C@H]1[C@@H](c2ccccc2Cl)OC2(C(=O)c3ccccc3C2=O)[C@H]1C(=O)O | > 80 µM
O=C(Nc1ccc2c(c1)OCO2)[C@H]1C(c2ccc(Cl)cc2)OC2(C(=O)c3ccccc3C2=O)[C@H]1C(=O)O (stereo partly drawn) | > 80 µM
O=C1[C@H]2[C@H](c3ccc(Cl)cc3)OC3(C(=O)c4ccccc4C3=O)[C@H]2C(=O)N1c1ccc2c(c1)OCO2 | > 80 µM
O=C(Nc1ccc2c(c1)OCO2)[C@H]1[C@@H](c2ccccc2)OC2(C(=O)c3ccccc3C2=O)[C@H]1C(=O)O | 71 µM
O=C1C2C(c3ccc(Cl)cc3)OC3(C(=O)c4ccccc4C3=O)C2C(=O)N1c1ccc2c(c1)OCO2 (stereo not drawn) | 11 µM
O=C(Nc1ccc2c(c1)OCO2)[C@H]1[C@@H](c2ccc(Cl)cc2)OC2(C(=O)c3ccccc3C2=O)[C@H]1C(=O)O | 7.8 µM
O=C(Nc1ccc2c(c1)OCO2)[C@H]1[C@@H](c2ccc(Cl)c(Cl)c2)OC2(C(=O)c3ccccc3C2=O)[C@H]1C(=O)O | 0.35 µM
